Measured values published in ChEMBL document CHEMBL1201862, “PubChem BioAssay data set” (2004).
Several values for one entry are separate records, joined by “and”; a condition that tells them apart may be missing. Equal entries are not always repeated.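 How tested: cells in 96-well plates exposed to compound for 48 hours at five concentrations. Abbreviation: GI50, concentration required for 50% inhibition of growth.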 Activity calls are given as the source filed them. Cut-off read from the data, not from the text of the source: active = GI50 up to about 1.1 µM and inactive = higher.

What was measured:
Test in all cases: growth of human tumour cells (NCI), 48 h
LOX IMVI = tested on: LOX IMVI
SF-295 = tested on: SF-295
TK-10 = tested on: TK-10
OVCAR-5 = tested on: OVCAR-5
KM12 = tested on: KM12
NCI-H226 = tested on: NCI-H226
A549 = tested on: A549
SN12C = tested on: SN12C
786-0 = tested on: 786-0
SK-OV-3 = tested on: SK-OV-3
OVCAR-8 = tested on: OVCAR-8
K562 = tested on: K562
RPMI-8226 = tested on: RPMI-8226
Hs-578T = tested on: Hs-578T
SW-620 = tested on: SW-620
HL-60 = tested on: HL-60
MOLT-4 = tested on: MOLT-4
HT-29 = tested on: HT-29
SK-MEL-5 = tested on: SK-MEL-5
SR = tested on: SR

| SMILES | GI50 (LOX IMVI) | GI50 (SF-295) | GI50 (TK-10) | GI50 (OVCAR-5) | GI50 (KM12) | GI50 (NCI-H226) | GI50 (A549) | GI50 (SN12C) | GI50 (786-0) | GI50 (SK-OV-3) | GI50 (OVCAR-8) | GI50 (K562) | GI50 (RPMI-8226) | GI50 (Hs-578T) | GI50 (SW-620) | GI50 (HL-60) | GI50 (MOLT-4) | GI50 (HT-29) | GI50 (SK-MEL-5) | GI50 (SR) |
| --- | --- | --- | --- | --- | --- | --- | --- | --- | --- | --- | --- | --- | --- | --- | --- | --- | --- | --- | --- | --- |
| CC1CC(N)=C(C#N)C1(C#N)C#N (stereo unspecified) | > 100 µM (inactive) | > 100 µM (inactive) | > 100 µM (inactive) | > 100 µM (inactive) | > 100 µM (inactive) | > 100 µM (inactive) | > 100 µM (inactive) | > 100 µM (inactive) | > 100 µM (inactive) | > 100 µM (inactive) | > 100 µM (inactive) | > 100 µM (inactive) | > 100 µM (inactive) | > 100 µM (inactive) | > 100 µM (inactive) | > 100 µM (inactive) | > 100 µM (inactive) | > 100 µM (inactive) |  |  |
| N#CCN1c2ccccc2CCC1Cl (stereo unspecified) | > 10 µM (inactive) | > 10 µM (inactive) | > 10 µM (inactive) | > 10 µM (inactive) | > 10 µM (inactive) | > 10 µM (inactive) | > 10 µM (inactive) | > 10 µM (inactive) | > 10 µM (inactive) | > 10 µM (inactive) | > 10 µM (inactive) | > 10 µM (inactive) | > 10 µM (inactive) | > 10 µM (inactive) | > 10 µM (inactive) |  | > 10 µM (inactive) | > 10 µM (inactive) | > 10 µM (inactive) | > 10 µM (inactive) |
| CCN(CC)CCCNc1nncc2cc3c([nH]c4ccccc43)c(C)c12 | 5.18 µM (inactive) | 16 µM (inactive) | 20.9 µM (inactive) | 14.4 µM (inactive) | 5.18 µM (inactive) | 11.5 µM (inactive) | 10.8 µM (inactive) | 6.24 µM (inactive) | 5.53 µM (inactive) | 15.2 µM (inactive) | 7.29 µM (inactive) | 7.03 µM (inactive) | 12 µM (inactive) | 14.1 µM (inactive) | 4.4 µM (inactive) | 5.02 µM (inactive) | 1.49 µM (inactive) | 4.03 µM (inactive) | 19.3 µM (inactive) |  |
| Cc1cn(CC2=NCC(C)(C)CN2)c(=O)[nH]c1=O | > 100 µM (inactive) | > 100 µM (inactive) | > 100 µM (inactive) | > 100 µM (inactive) |  | > 100 µM (inactive) | > 100 µM (inactive) | > 100 µM (inactive) | > 100 µM (inactive) | > 100 µM (inactive) | > 100 µM (inactive) |  |  | > 100 µM (inactive) | > 100 µM (inactive) | > 100 µM (inactive) |  | > 100 µM (inactive) | > 100 µM (inactive) |  |
| O=C(O)c1cc2ccccc2c(/N=N/c2c([N+](=O)[O-])cc([N+](=O)[O-])cc2S(=O)(=O)O)c1O | > 100 µM (inactive) | > 100 µM (inactive) | > 100 µM (inactive) | > 100 µM (inactive) | > 100 µM (inactive) | > 100 µM (inactive) | > 100 µM (inactive) | > 100 µM (inactive) | > 100 µM (inactive) | > 100 µM (inactive) | > 100 µM (inactive) | > 100 µM (inactive) | > 100 µM (inactive) | > 100 µM (inactive) | > 100 µM (inactive) |  | > 100 µM (inactive) | > 100 µM (inactive) | > 100 µM (inactive) |  |
| N#CCCC1(CCC#N)CCCCCCCCC(CCC#N)(CCC#N)C(O)C1O (stereo unspecified) | > 100 µM (inactive) | > 100 µM (inactive) | 74.8 µM (inactive) | > 100 µM (inactive) | > 100 µM (inactive) | > 100 µM (inactive) | 73.6 µM (inactive) | > 100 µM (inactive) | > 100 µM (inactive) | > 100 µM (inactive) | > 100 µM (inactive) | > 100 µM (inactive) | < 0.01 µM (active) | 52 µM (inactive) | > 100 µM (inactive) |  |  | > 100 µM (inactive) | > 100 µM (inactive) |  |
| O=c1[nH]c2cc([N+](=O)[O-])c(N/N=C/c3ccc(Cl)cc3Cl)c([N+](=O)[O-])c2[nH]1 | 18.5 µM (inactive) | > 100 µM (inactive) | 31.6 µM (inactive) | 70 µM (inactive) | 5.85 µM (inactive) | 58.3 µM (inactive) | 37.9 µM (inactive) | 37.5 µM (inactive) | 32.1 µM (inactive) | 30.1 µM (inactive) | 20 µM (inactive) | 43.6 µM (inactive) | 33.8 µM (inactive) | 90.2 µM (inactive) | 26.7 µM (inactive) | > 100 µM (inactive) | 32.9 µM (inactive) | > 100 µM (inactive) | > 100 µM (inactive) |  |
| O=c1c(Br)cc2c(-c3ccccc3)c3cc(Br)c(O)c(Br)c3oc-2c1Br | 37.4 µM (inactive) | 84.9 µM (inactive) | > 100 µM (inactive) | > 100 µM (inactive) | > 100 µM (inactive) | > 100 µM (inactive) | > 100 µM (inactive) | > 100 µM (inactive) | > 100 µM (inactive) | 48.4 µM (inactive) | > 100 µM (inactive) | > 100 µM (inactive) | > 100 µM (inactive) | > 100 µM (inactive) | > 100 µM (inactive) | 51.6 µM (inactive) | 29.1 µM (inactive) | 21.7 µM (inactive) | > 100 µM (inactive) |  |
| COC(=O)/N=[N+](\[O-])C(c1ccc(OC)cc1)C1CCCCC1 (stereo unspecified) | 3.33 µM (inactive) | 1.82 µM (inactive) | 3.58 µM (inactive) | 2.58 µM (inactive) | 2.39 µM (inactive) | 5.16 µM (inactive) | 5.07 µM (inactive) | 1.8 µM (inactive) | 3.82 µM (inactive) | 3.67 µM (inactive) | 4.75 µM (inactive) | 2.67 µM (inactive) | 0.948 µM (active) | 6.3 µM (inactive) | 3.4 µM (inactive) | 0.787 µM (active) | 2.87 µM (inactive) | 1.29 µM (inactive) | 2.08 µM (inactive) |  |
| CC1OC(OC2C(OC(=O)[C@]34CCC(C)(C)C[C@H]3C3=CC[C@@H]5[C@@]6(C)CC[C@H](OC7OC(CO)C(O)C(O)C7OC7OC(CO)C(O)C(O)C7O)C(C)(C)[C@@H]6CC[C@@]5(C)[C@]3(C)CC4)OCC(O)C2O)C(O)C(O)C1OC1OCC(O)C(OC2OCC(O)C(O)C2O)C1O (stereo partly specified) | 9.98 µM (inactive) and 11.1 µM (inactive) | 3.44 µM (inactive) and 3.78 µM (inactive) | 8.41 µM (inactive) and 8.63 µM (inactive) | 4.86 µM (inactive) and 5.37 µM (inactive) | 3.74 µM (inactive) and 3.59 µM (inactive) | 3.57 µM (inactive) and 3.8 µM (inactive) | 3.01 µM (inactive) and 3.03 µM (inactive) | 2.15 µM (inactive) | 6.67 µM (inactive) and 5.46 µM (inactive) | 12.6 µM (inactive) and 13.1 µM (inactive) | 7.74 µM (inactive) and 11.6 µM (inactive) | 4.6 µM (inactive) and 3.77 µM (inactive) | 3.98 µM (inactive) and 4.43 µM (inactive) | 13.5 µM (inactive) and 12.9 µM (inactive) | 10.4 µM (inactive) and 11 µM (inactive) |  |  | 3.02 µM (inactive) and 3.33 µM (inactive) | 2.82 µM (inactive) and 3.24 µM (inactive) | 2.19 µM (inactive) and 3.06 µM (inactive) |
